{"source": "paper PMC10149936", "about": "“Cofilin activation in pancreatic acinar cells plays a pivotal convergent role for mediating CCK-stimulated enzyme secretion and growth” (Frontiers in Physiology, 2023)", "key": {"[1]": {"test_system": "cofilin (pS3) in rat pancreatic acini", "test": "cofilin activation (phospho-pS3 cofilin Western blot) in isolated rat pancreatic acini", "type": "cell-based", "conditions": "for effect on basal phosphorylation level of cofilin / reversal of cofilin dephosphorylation stimulated by CCK-8 and TPA: GFX 5 µM, kbNB 0.1 µM or PP2 10 µM; for effect on basal phosphorylation level of cofilin / reversal of cofilin dephosphorylation stimulated by CCK-8 and TPA / inhibition of dephosphorylation of cofilin stimulated by CCK-8 or TPA: 3 h; for effect on basal phosphorylation level of cofilin / decrease of basal phosphorylation levels of cofilin: no stimulant; for reversal of cofilin dephosphorylation stimulated by CCK-8 and TPA: CCK-8 100 nM 3 min; for reversal of cofilin dephosphorylation stimulated by CCK-8 and TPA / inhibition of dephosphorylation of cofilin stimulated by CCK-8 or TPA: TPA 1 µM 5 min; for reversal of cofilin dephosphorylation by CCK-8: Wortmannin 1 µM, LY294002 100 µM, SB202190 10 µM, U0126 10 µM, Y-27632 10 µM 1 h, SP600125 20 µM 3 h; for reversal of cofilin dephosphorylation by CCK-8 / inhibition of dephosphorylation of cofilin stimulated by CCK-8 or TPA: CCK-8 0.3 and 100 nM 3 min; for effect on cofilin phosphorylation (pS3): 1 min, CCK-8 100 nM, carbachol 1 μM, bombesin 1 nM, secretin 1 nM or VIP 1 nM, n at least 3; for decrease of basal phosphorylation levels of cofilin / inhibition of CCK-8-stimulated dephosphorylation of cofilin: LIMK inhibitor 10 µM 3 h; for inhibition of CCK-8-stimulated dephosphorylation of cofilin: CCK-8 0.3 or 100 nM 3 min; for inhibition of dephosphorylation of cofilin stimulated by CCK-8 or TPA: PF-3758309 0.1 nM or LCH-7749944 30 µM", "procedure": "(§1) Pancreatic acini preparations were obtained by collagenase digestion as previously described ([Bissonnette et al., 1984]; [Sato et al., 1989]; [Ramos-Alvarez and Jensen, 2018]). After collagenase digestion, dispersed acini were preincubated with different inhibitors in standard incubation solution ([Ramos-Alvarez and Jensen, 2018]; [Ramos-Ãlvarez et al., 2020]) for 3 h at 37°C under conditions specific for PKD/PKC, Src, PI3K, MAPKs, SSH1, LIMK, cofilin, other phosphatases and PAK4 inhibitors, as described previously ([Ramos-Alvarez and Jensen, 2018]; [Ramos-Ãlvarez et al., 2020]). Isolated acini and CCK1-R/Panc-1 cells (M&M 2.2.1) were also preincubated with two SSH1 inhibitors, D3 (25 μM, 1 h) ([Li et al., 2015]) or SE (50 μM, 3 h for acini; 24 h for CCK1-R/Panc-1 cells) ([Lee et al., 2017]). After preincubation, 1 mL aliquots of dispersed acini were incubated at 37°C for 3–15 min with CCK-8 (0.3 nM or 100 nM), for 5–15 min with TPA (1 µM) or without stimulants, used as control. Cells were lysed in lysis buffer (50 mM Tris/HCl pH 7.5, 150 mM NaCl, 1% Triton X-100, 1% deoxycholate, 0.1% sodium azide, 1 mM EGTA, 0.4 mM EDTA, 0.2 mM sodium orthovanadate, 1 mM PMSF, and one protease inhibitor tablet per 10 mL). After sonication, lysates were centrifuged at 10,000×g for 15 min at 4°C and protein concentration was measured using the Bio-Rad protein assay reagent. Finally, cells were processed as below for Western blotting.\n(§2) Both concentrations of CCK-8 were used because CCK-8 is reported to have different responses with physiological and supraphysiological concentrations contributing to physiological and pathophysiological processes such as pancreatitis ([Dufresne et al., 2006]).\n(§3) Western blotting and immunoprecipitation were performed as described previously ([Ramos-Alvarez and Jensen, 2018]). Whole cell lysates were subjected to SDS-PAGE using 4%–20% Tris–Glycine gels. […] Finally, membranes were then washed again twice in blocking buffer for 4 min, twice in washing buffer for 4 min, incubated for 4 min with chemiluminescence detection reagents. The intensity of the protein bands was measured using GeneTools software from Syngene, which were assessed in the linear detection range.\nAll experiments were performed at least 3 times. Data are presented as mean ± SEM and were analyzed with the non-parametric Kruskal–Wallis analysis (data was not normally distributed) and the Dunn’s multiple comparison test using the GraphPad Prism 8.0 software. P values < 0.05 were considered significant.\n(A) Isolated pancreatic acini were incubated in the absence or presence of CCK-8 (100 nM), carbachol (1 μM), bombesin (1 nM), secretin (1 nM) or VIP (1 nM) for 1 min and then lysed. (B) Isolated pancreatic acini were incubated in the absence or presence of CCK-8 and CCK-JMV (at the indicate concentrations) for 3 min and then lysed. Western blots were analyzed using anti-pS3 cofilin, which mediates the activation state of cofilin. Bands were visualized using chemiluminescence and quantified by densitometry."}, "[2]": {"test_system": "LIMK (pT508) in pancreatic acini", "test": "LIMK phosphorylation (pT508 LIMK Western blot) in isolated rat pancreatic acini", "type": "cell-based", "conditions": "for decrease of basal levels of LIMK phosphorylation: 10 µM, 3 h preincubation, no stimulant, n at least 4", "procedure": "as §1, §2, §3\nIsolated pancreatic acini were incubated with either no addition (control), CCK-8 (0.3 and 100 nM) or TPA (1 µM) for the indicated periods of time and then lysed. Western blots were analyzed using anti-pT508 LIMK, anti-pS3 cofilin and anti-pS978 SSH1, which […] the activation states of LIMK, cofilin and SSH1. Bands were visualized using chemiluminescence and quantified by densitometry."}, "[3]": {"conditions": "inhibitor 10 µM 3 h, CCK-8 0.3 or 100 nM 3 min"}}, "note": "No end group written: not given here."}
{"molecule": "KbNB142-70", "values": [{"measurement": "effect on basal phosphorylation level of cofilin", "setting": "[1]", "value": "None of these inhibitors altered the basal phosphorylation level of cofilin"}, {"measurement": "reversal of cofilin dephosphorylation stimulated by CCK-8 and TPA", "setting": "[1]", "value": "completely reversed"}]}
{"molecule": "O=c1cc(N2CCOCC2)oc2c(-c3ccccc3)cccc12", "note": "[LY294002]", "values": [{"measurement": "reversal of cofilin dephosphorylation by CCK-8", "setting": "[1]", "value": "not PI3K or p38"}]}
{"molecule": "C[N+](C)(C)CCOC(N)=O", "note": "[carbachol]", "values": [{"measurement": "effect on cofilin phosphorylation (pS3)", "setting": "[1]", "value": "rapidly decreased cofilin phosphorylation"}]}
{"molecule": "CC(C)C(=O)Nc1ncc(-c2cc(C(F)F)nn2-c2c(Cl)cccc2Cl)s1", "note": "[LIMKi3]", "values": [{"measurement": "decrease of basal levels of LIMK phosphorylation", "setting": "[2]", "value": 33, "unit": "%"}, {"measurement": "inhibition of LIMK dephosphorylation caused by CCK-8", "setting": "[2]; [3]", "value": "completely inhibited"}, {"measurement": "decrease of basal phosphorylation levels of cofilin", "setting": "[1]", "value": 39, "unit": "%"}, {"measurement": "inhibition of CCK-8-stimulated dephosphorylation of cofilin", "setting": "[1]", "value": "did not inhibit"}]}
{"molecule": "Cc1nc(Nc2[nH]nc3c2CN(C(=O)N[C@H](CN(C)C)c2ccccc2)C3(C)C)c2sccc2n1", "note": "[PF-3758309]", "values": [{"measurement": "inhibition of dephosphorylation of cofilin stimulated by CCK-8 or TPA", "setting": "[1]", "value": "completely inhibited"}]}
{"molecule": "CC(C)(C)n1nc(-c2ccc(Cl)cc2)c2c(N)ncnc21", "note": "[PP2]", "values": [{"measurement": "effect on basal phosphorylation level of cofilin", "setting": "[1]", "value": "None of these inhibitors altered the basal phosphorylation level of cofilin"}, {"measurement": "reversal of cofilin dephosphorylation stimulated by CCK-8 and TPA", "setting": "[1]", "value": "completely reversed"}]}
{"molecule": "secretin", "values": [{"measurement": "effect on cofilin phosphorylation (pS3)", "setting": "[1]", "value": "rapidly decreased cofilin phosphorylation"}]}
{"molecule": "VIP: pancreatic acinar secretagogue (HSDAVFTDNYTRLRKQMAVKKYLNSILN; ends and bridges not checked; UniProt P01282 125-152, looked up)", "values": [{"measurement": "effect on cofilin phosphorylation (pS3)", "setting": "[1]", "value": "rapidly decreased cofilin phosphorylation"}]}
{"molecule": "bombesin", "values": [{"measurement": "effect on cofilin phosphorylation (pS3)", "setting": "[1]", "value": "rapidly decreased cofilin phosphorylation"}]}
{"molecule": "COC[C@H]1OC(=O)c2coc3c2[C@@]1(C)C1=C(C3=O)[C@@H]2CCC(=O)[C@@]2(C)C[C@H]1OC(C)=O", "note": "[Wortmannin]", "values": [{"measurement": "reversal of cofilin dephosphorylation by CCK-8", "setting": "[1]", "value": "not PI3K or p38"}]}
{"molecule": "Cc1c[nH]c2ncnc(-c3ccc(NC(=O)N(CCO)c4ccccc4)cc3)c12", "note": "[SR7826]", "values": [{"measurement": "decrease of basal levels of LIMK phosphorylation", "setting": "[2]", "value": 33, "unit": "%"}, {"measurement": "increase in LIMK phosphorylation with CCK-8 stimulation", "setting": "[2]; [3]", "value": 80, "unit": "%"}, {"measurement": "inhibition of LIMK dephosphorylation caused by CCK-8", "setting": "[2]; [3]", "value": "completely inhibited"}, {"measurement": "decrease of basal phosphorylation levels of cofilin", "setting": "[1]", "value": 67, "unit": "%"}, {"measurement": "inhibition of CCK-8-stimulated dephosphorylation of cofilin", "setting": "[1]", "value": "did not inhibit"}]}
{"molecule": "COc1cccc(Nc2nc(NCC3CCCO3)c3ccccc3n2)c1", "note": "(stereo not shown) [LCH-7749944, N2-(3-methoxyphenyl)-N4-[(oxolan-2-yl)methyl]quinazoline-2,4-diamine]", "values": [{"measurement": "inhibition of dephosphorylation of cofilin stimulated by CCK-8 or TPA", "setting": "[1]", "value": "completely inhibited"}]}
{"molecule": "C[C@@H](N)[C@H]1CC[C@H](C(=O)Nc2ccncc2)CC1", "note": "[Y-27632]", "values": [{"measurement": "reversal of cofilin dephosphorylation by CCK-8", "setting": "[1]", "value": "completely reversed"}]}
